Calls of active or inactive are those of the source. No cut-off for these calls is given here.
Tests used:
[1] = target: T1, Tyrosine-protein kinase ABL1 (Homo sapiens, UniProt P00519)
Description: Inhibition of wild type human ABL1 by high throughput ATP-[33P] radiolabeled assay

[2] = target: Tyrosine-protein kinase ZAP-70 (Homo sapiens, UniProt P43403)
Description: Inhibition of wild type human ZAP70 by high throughput ATP-[33P] radiolabeled assay

[3] = target: Epidermal growth factor receptor (Homo sapiens) (UniProt P00533); experiment: Inhibition of human wild type EGFR at 1 uM by qPCR analysis
[4] = target: Non-receptor tyrosine-protein kinase TYK2 (Homo sapiens) (UniProt P29597); experiment: Inhibition of human wild type TYK2 at 1 uM by qPCR analysis relative to control
[5] = target: Insulin-like growth factor 1 receptor (Homo sapiens, UniProt P08069)
Description: Inhibition of wild type human IGF1R by high throughput ATP-[33P] radiolabeled assay

[6] = target: Ribosomal protein S6 kinase alpha-6 (Homo sapiens) (UniProt Q9UK32); experiment: Inhibition of human wild type RSK4 at 1 uM by qPCR analysis
[7] = target: Dual specificity tyrosine-phosphorylation-regulated kinase 1B (Homo sapiens) (UniProt Q9Y463); experiment: Inhibition of human wild type DYRK1B at 1 uM by qPCR analysis relative to control
[8] = target: T1, Tyrosine-protein kinase ABL1; experiment: Inhibition of human ABL1 mutant at 1 uM by qPCR analysis
Cytochrome P450 2D6 = Cytochrome P450 2D6 (Homo sapiens, UniProt P10635)
Description: Inhibition of CYP2D6 in human liver microsomes assessed as inhibition of diclofenac metabolism by HPLC/MS analysis

[9] = target: RAC-beta serine/threonine-protein kinase (Homo sapiens) (UniProt P31751); experiment: Inhibition of human wild type AKT2 at 1 uM by qPCR analysis
[10] = target: Mitogen-activated protein kinase kinase kinase 9 (Homo sapiens, UniProt P80192)
Mitogen-activated protein kinase kinase kinase 9, sequence (P80192 whole entry): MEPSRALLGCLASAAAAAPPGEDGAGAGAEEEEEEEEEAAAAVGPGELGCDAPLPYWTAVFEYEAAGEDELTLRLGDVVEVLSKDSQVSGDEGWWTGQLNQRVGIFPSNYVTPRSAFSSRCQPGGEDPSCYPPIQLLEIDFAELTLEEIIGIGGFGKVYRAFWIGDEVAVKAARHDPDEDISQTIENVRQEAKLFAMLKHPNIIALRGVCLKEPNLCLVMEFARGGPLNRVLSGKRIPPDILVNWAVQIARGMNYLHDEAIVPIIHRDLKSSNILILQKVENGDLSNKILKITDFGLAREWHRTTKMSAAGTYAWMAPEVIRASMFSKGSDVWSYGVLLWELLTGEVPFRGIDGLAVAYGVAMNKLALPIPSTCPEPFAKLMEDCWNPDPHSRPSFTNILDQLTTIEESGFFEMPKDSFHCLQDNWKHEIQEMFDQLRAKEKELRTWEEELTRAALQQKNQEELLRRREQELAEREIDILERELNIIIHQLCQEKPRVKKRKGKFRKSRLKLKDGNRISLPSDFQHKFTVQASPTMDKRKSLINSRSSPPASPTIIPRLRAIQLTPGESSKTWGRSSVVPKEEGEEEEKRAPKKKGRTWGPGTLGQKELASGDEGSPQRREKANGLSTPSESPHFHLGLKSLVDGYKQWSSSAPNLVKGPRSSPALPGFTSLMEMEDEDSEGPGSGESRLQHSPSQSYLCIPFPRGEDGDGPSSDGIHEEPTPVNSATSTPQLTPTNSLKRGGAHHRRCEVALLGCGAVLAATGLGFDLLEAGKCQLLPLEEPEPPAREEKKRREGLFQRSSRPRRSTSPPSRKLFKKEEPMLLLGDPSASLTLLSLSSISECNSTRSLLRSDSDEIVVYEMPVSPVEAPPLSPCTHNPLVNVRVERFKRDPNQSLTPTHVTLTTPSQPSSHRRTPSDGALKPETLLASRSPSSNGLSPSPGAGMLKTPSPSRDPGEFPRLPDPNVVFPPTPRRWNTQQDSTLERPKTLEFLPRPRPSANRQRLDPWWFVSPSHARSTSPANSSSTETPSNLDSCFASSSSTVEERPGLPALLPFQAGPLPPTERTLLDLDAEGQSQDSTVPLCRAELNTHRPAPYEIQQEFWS
Description: Inhibition of MLK1 (unknown origin)

T1 sequence (P00519 whole entry): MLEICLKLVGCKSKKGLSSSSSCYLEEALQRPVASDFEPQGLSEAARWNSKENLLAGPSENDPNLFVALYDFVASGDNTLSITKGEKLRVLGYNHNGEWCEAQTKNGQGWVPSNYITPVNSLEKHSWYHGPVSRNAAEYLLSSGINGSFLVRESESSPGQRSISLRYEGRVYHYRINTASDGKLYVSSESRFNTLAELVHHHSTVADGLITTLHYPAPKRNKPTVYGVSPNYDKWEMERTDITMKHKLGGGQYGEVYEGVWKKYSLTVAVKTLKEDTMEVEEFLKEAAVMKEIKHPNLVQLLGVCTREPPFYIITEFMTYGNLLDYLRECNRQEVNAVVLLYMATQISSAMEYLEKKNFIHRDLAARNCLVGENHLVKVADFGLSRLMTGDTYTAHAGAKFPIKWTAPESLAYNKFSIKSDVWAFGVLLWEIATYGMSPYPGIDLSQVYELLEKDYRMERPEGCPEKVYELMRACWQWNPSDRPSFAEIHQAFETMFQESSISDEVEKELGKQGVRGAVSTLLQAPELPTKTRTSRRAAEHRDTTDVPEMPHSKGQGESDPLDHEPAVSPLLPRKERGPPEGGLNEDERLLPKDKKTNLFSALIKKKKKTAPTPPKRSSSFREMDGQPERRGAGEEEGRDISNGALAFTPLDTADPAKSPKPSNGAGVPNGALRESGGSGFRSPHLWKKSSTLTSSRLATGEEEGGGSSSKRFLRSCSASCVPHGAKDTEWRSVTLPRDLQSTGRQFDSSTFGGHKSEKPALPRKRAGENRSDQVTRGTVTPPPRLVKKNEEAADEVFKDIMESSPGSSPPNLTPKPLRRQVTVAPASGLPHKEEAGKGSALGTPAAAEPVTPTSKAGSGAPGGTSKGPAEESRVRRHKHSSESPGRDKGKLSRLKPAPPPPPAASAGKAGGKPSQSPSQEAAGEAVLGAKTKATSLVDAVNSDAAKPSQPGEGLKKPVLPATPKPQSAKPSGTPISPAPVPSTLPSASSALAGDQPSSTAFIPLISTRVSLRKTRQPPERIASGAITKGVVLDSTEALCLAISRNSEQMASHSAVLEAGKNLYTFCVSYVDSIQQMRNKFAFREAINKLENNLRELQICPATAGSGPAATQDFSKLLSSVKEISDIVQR
Ribosomal protein S6 kinase alpha-6 (Homo sapiens), sequence (Q9UK32 whole entry): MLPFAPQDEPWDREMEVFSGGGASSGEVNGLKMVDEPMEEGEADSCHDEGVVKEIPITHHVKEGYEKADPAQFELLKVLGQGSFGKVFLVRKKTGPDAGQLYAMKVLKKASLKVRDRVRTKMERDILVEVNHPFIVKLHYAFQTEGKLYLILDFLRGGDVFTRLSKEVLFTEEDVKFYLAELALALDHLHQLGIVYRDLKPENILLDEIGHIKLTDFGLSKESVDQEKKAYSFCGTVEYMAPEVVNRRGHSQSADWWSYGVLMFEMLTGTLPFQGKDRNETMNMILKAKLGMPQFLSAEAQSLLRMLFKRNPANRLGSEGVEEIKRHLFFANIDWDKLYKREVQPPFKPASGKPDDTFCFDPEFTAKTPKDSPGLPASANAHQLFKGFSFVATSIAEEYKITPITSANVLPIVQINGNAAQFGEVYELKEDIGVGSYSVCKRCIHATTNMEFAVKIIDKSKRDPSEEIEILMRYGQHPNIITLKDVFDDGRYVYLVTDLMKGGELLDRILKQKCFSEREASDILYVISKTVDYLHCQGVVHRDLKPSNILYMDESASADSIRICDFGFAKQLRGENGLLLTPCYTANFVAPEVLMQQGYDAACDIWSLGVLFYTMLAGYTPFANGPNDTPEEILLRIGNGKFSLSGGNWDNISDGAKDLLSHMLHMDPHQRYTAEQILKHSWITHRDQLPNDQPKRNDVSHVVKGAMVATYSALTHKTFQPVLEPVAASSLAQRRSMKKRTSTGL
Cytochrome P450 2D6, sequence (P10635 whole entry): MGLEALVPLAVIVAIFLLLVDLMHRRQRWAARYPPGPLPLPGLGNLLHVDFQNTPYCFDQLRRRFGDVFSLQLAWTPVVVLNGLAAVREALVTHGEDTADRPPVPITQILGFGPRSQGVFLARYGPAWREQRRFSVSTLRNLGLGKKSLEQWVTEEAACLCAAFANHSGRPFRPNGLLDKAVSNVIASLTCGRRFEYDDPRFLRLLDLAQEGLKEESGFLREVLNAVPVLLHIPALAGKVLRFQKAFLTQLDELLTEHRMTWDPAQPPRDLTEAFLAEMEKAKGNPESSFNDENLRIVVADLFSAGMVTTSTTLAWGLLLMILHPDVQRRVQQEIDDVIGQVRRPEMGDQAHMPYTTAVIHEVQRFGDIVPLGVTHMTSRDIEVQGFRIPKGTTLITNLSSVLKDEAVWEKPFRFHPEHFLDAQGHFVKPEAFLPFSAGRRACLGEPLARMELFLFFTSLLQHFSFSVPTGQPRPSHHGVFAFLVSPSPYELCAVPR
Insulin-like growth factor 1 receptor, sequence (P08069 31-736 limits assumed): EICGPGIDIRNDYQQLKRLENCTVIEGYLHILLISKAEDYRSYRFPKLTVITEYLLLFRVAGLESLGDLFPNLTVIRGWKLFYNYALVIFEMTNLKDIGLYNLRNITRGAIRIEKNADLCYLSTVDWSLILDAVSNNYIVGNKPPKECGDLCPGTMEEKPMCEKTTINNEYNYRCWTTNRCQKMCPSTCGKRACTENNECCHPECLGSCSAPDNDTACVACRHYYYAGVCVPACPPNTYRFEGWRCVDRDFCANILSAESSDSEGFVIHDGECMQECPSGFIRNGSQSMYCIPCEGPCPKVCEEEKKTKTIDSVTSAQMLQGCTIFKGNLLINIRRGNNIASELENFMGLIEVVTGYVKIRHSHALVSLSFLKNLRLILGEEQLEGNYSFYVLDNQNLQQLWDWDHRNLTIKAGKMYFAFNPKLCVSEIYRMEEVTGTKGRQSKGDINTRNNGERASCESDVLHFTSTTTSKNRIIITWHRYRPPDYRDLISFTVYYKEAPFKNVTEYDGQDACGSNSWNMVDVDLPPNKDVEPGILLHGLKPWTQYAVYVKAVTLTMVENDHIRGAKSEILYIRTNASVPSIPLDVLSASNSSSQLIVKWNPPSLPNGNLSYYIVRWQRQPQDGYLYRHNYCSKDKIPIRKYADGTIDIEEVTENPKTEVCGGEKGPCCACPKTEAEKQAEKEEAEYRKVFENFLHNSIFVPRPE
Insulin-like growth factor 1 receptor, sequence (P08069 741-1367 limits assumed): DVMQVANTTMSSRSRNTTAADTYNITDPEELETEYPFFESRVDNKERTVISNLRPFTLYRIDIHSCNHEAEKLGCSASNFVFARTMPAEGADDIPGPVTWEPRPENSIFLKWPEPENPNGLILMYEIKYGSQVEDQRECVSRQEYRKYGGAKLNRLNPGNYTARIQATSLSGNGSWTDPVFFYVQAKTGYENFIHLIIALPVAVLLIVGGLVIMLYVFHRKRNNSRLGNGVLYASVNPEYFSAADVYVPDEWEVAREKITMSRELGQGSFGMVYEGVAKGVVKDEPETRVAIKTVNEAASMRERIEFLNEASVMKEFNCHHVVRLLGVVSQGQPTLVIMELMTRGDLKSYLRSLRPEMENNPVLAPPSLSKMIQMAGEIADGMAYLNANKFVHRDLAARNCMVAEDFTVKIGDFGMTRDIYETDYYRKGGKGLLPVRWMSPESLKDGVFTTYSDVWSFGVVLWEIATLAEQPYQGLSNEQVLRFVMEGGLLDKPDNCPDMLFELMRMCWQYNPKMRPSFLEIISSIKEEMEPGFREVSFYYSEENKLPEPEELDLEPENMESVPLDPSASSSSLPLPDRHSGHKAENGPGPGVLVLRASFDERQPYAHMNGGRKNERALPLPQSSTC

**Q.** For `CN1CCN(Cc2ccc(-c3cnc4[nH]cc(-c5ccc6[nH]ccc6c5)c4c3)cc2)CC1`, which IC50 [1] is on record?
**A.** Its IC50 is 6.8 nM.

**Q.** And the IC50 [2]?
**A.** Its IC50 is 5.05 µM.

**Q.** And the inhibition [3]?
**A.** The inhibition was “inactive”.

**Q.** What about the inhibition [4] of the same compound?
**A.** The inhibition was over 90%.

**Q.** And the IC50 [5]?
**A.** The IC50 was 307 nM.

**Q.** And the inhibition [6]?
**A.** The inhibition was “inactive”.

**Q.** What about the inhibition [7] of the same compound?
**A.** The inhibition was over 90%.

**Q.** What about the inhibition [8] of the same compound?
**A.** Its inhibition is “Active”.

**Q.** And the IC50 (Cytochrome P450 2D6)?
**A.** The IC50 was over 30 µM.

**Q.** What about the inhibition [9] of the same compound?
**A.** Its inhibition is “inactive”.

**Q.** And the IC50 [10]?
**A.** Its IC50 is 19 nM.
